The record followed here is patent publication US20050009730A1, “Treatment of cns disorders using cns target modulators” (priority 2001, published 2005).

The test system of one series is Male Wistar rats. Briefly: Sleep-wakefulness, locomotor activity and body temperature monitoring (SCORE-2000), treatment at CT-18.
The next series has as its target Histamine, H1 (Homo sapiens, UniProt P35367). Briefly: H1 binding assay by displacement of known standards. The method, then:
The following binding assays were performed on the Series 11 compounds described above by displacement of known standards from the H1, M1, M2, and M3 receptors, wherein H1 is a histamine receptor, and M1, M2, and M3 are muscarinic receptors.
The binding studies against the histamine receptor, H1, indicate binding affinity, and therefore the results of the binding assays are an indication of the activity of the compound. […]
The following binding assays were performed on additional compounds described above by displacement of known standards from the H1, M1, M2, and M3 receptors, wherein H1 is a histamine receptor, and M1, M2, and M3 are muscarinic receptors.
The binding assays for H1 was the same as described in Example 10 and the M1, M2, and M3 binding assays are the same as those described in Example 10 for human recombinant expressed cells.

[1] abbreviates: read-out: Receptor Binding Data (Ki nM) H1.
Where [2] appears, read: 10 mg/kg or 30 mg/kg, intraperitoneal.
Setting [3] is: 30 mg/kg and 10 mg/kg, intraperitoneal, CT-18.

Read-outs that look alike come from different tables or passages of the source.

What is called Ki is a measure of affinity in units of concentration, obtained from inhibition or displacement. As usually defined, the IC50 is the concentration that gives 50% inhibition.

Histamine, H1, sequence (P35367 whole entry): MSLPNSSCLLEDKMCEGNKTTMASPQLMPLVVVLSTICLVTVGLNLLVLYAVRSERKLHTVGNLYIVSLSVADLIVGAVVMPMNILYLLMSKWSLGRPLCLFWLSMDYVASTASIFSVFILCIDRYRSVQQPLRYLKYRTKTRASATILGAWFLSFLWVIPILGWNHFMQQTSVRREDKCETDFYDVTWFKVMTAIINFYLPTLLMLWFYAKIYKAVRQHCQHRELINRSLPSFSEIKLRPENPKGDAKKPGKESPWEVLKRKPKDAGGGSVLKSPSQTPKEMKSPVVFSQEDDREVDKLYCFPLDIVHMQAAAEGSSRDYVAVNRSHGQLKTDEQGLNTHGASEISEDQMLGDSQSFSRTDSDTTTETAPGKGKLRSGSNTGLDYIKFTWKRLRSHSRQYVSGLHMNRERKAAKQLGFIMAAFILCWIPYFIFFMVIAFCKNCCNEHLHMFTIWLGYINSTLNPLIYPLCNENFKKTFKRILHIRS

`O=C(O)CCCN1CCC(=C2c3ccccc3COc3ccccc32)CC1` [Series 73a]: in the series on Male Wistar rats (30 mg/kg PO, at CT-18), the “Average Bout-Length” value came out at 14.5 min, the “Maximum Bout Length” value is 27.6 min, the “NREM Accum.” value worked out at 47.3 min and the “NREM Peak” value stood at 62.2 %/hr. The molecule also returned an Onset with Male Wistar rats (30 mg/kg PO, at CT-18) of 45 min. In addition, at Histamine, H1 (setting [1]), the Ki was 42.8 nM.
For `CC(C)(CCN1CCC(=C2c3ccccc3COc3ccccc32)CC1)C(=O)O` [Series 75a], in the series with Male Wistar rats (30 mg/kg PO, at CT-18), the “Average Bout-Length” value came out at 6.8 min, the Duration worked out at 4 h, the “Maximum Bout Length” value amounted to 13.6 min and the “NREM Accum.” value is 33.9 min. Further, in the series on Male Wistar rats (30 mg/kg PO, at CT-18), the “NREM Peak” value stood at 58.8 %/hr and the Onset was in the range of 70 to 85 min. In addition, in the series with Male Wistar rats (45 mg/kg PO, at CT-18), the “Average Bout-Length” value was 10.8 min, the Duration came out at 5 h, the “Maximum Bout Length” value turned out to be 19.4 min and the “NREM Accum.” value was found to be 33.9 min. Moreover, in the series with Male Wistar rats (45 mg/kg PO, at CT-18), the “NREM Peak” value was found to be 58.2 %/hr and the Onset is 70 to 85 min. For the same molecule, on Histamine, H1 (setting [1]), the Ki worked out at 47.9 nM.
`Cl.O=C(O)CCN1CCC(=C(c2ccccc2)c2ccccc2)CC1` [Series 11a]: in the series on Male Wistar rats (30 mg/kg PO, at CT-18), the “Average Bout-Length” value was 11.2 min, the Duration was 6 h, the “Maximum Bout Length” value came to 18.7 min and the “NREM Accum.” value amounted to 41.2 min. In the series on Male Wistar rats (30 mg/kg PO, at CT-18), the “NREM Peak” value is 67.3 %/hr, the Onset is 85 min and the “Rebound Insomnia” value is given as “Minor”. For the same molecule, the IC50 at Histamine, H1 was 308 nM. The Ki on Histamine, H1 (read-out: H1 Ki) worked out at 119 nM.
For the molecule `O=C(CCN1CCC(=C(c2ccccc2)c2ccccc2)CC1)OC1CCOCC1` [Series 11i], on Histamine, H1, the IC50 was determined as 200 nM. For the same molecule, the Ki on Histamine, H1 (read-out: H1 Ki) stood at 87.8 nM.
As to `CC(C)COC(=O)CCN1CCC(=C(c2ccccc2)c2ccccc2)CC1` [Series 11e, Isobutyl 3-[4-(diphenylmethylidene)piperidin-1-yl]propanoate], in the series with Male Wistar rats (30 mg/kg PO, at CT-18), the “Average Bout-Length” value stood at 8.3 min, the Duration was found to be 6 h, the “Maximum Bout Length” value stood at 19.1 min and the “NREM Accum.” value was determined as 49.6 min. For the same molecule, in the series with Male Wistar rats (30 mg/kg PO, at CT-18), the “NREM Peak” value is 59.6 %/hr and the Onset stood at 80 min. Further, the IC50 at Histamine, H1 is 718 nM. Moreover, the Ki at Histamine, H1 (read-out: H1 Ki) stood at 279 nM.
For `Cc1ccc(/C(=C\CN2CCCC2)c2cccc(C(=O)O)n2)cc1` [Series 16a], in the series on Male Wistar rats (30 mg/kg PO, at CT-18), the “Average Bout-Length” value was found to be 5.4 min, the Duration was found to be 5 h, the “Maximum Bout Length” value came out at 11.8 min and the “NREM Accum.” value turned out to be 20.7 min. Also, in the series with Male Wistar rats (30 mg/kg PO, at CT-18), the “NREM Peak” value amounted to 57.9 %/hr and the Onset is 180 min. The Ki on Histamine, H1 (setting [1]) was 43.9 nM.
For the molecule `CC(C)(CN1CCC(=C2c3ccccc3COc3ccccc32)CC1)C(=O)O` [Series 74a], in the series on Male Wistar rats (30 mg/kg PO, at CT-18), the “Average Bout-Length” value is 9.9 min, the Duration fell in the range of 5 to 6 h, the “Maximum Bout Length” value was found to be 22.3 min and the “NREM Accum.” value turned out to be 43.4 min. Also, in the series with Male Wistar rats (30 mg/kg PO, at CT-18), the “NREM Peak” value turned out to be 64.4 %/hr and the Onset fell in the range of 70 to 80 min. For the same molecule, the Ki on Histamine, H1 (setting [1]) is 109 nM.
For `O=C(O)CN1CCC(=C2c3ccccc3COc3ccccc32)CC1` [Series 7a], in the series with Male Wistar rats (30 mg/kg PO, at CT-18), the “Average Bout-Length” value worked out at 7.3 min, the Duration fell in the range of 5 to 6 h, the “Maximum Bout Length” value was 16.9 min and the “NREM Accum.” value turned out to be 29.5 min. For the same molecule, in the series on Male Wistar rats (30 mg/kg PO, at CT-18), the “NREM Peak” value came to 56.9 %/hr and the Onset came out at 130 min. In addition, the Ki on Histamine, H1 (setting [1]) was 55.1 nM.
Consider `O=C(CCN1CCC(=C(c2ccccc2)c2ccccc2)CC1)OC1CCCC1.O=C(O)C(=O)O` [Series 11f, Cyclopentyl 3-[4-(diphenylmethylidene)piperidin-1-yl]propanoate, oxalic acid salt], for which, in the series on Male Wistar rats (setting [2]), the REM sleep inhibition result is “did not, however, produce” and the Rebound Insomnia entry was “did not, however, produce”. Further, in the series with Male Wistar rats (setting [3]), the “time post-treatment for which total sleep time was increased” value is 3 h and the total sleep time entry is on record as “significantly increased”. Also, the “cumulative effect on total sleep time (TST) during the initial 5 hours post-treatment, relative to baseline” value in the series with Male Wistar rats (30 mg/kg versus Zolpidem 10 mg/kg) is “induced more TST than Zolpidem”. In addition, the “sleep continuity, as assessed by sleep bout length” value in the series on Male Wistar rats (10 and 30 mg/kg, intraperitoneal, relative to vehicle control) was “increased sleep continuity”. Also, the soporific effects entry in the series with Male Wistar rats (administered at CT-18, intraperitoneal bolus) is given as “robust soporific effects”. Moreover, in the series with Male Wistar rats (intraperitoneal, CT-18), the locomotor activity entry is “reduction” and the “sleep inducing effects compared to therapeutic doses of Ambien (Zolpidem)” value was “equal or better”. The “increase of sleep time and sleep continuity (sleep bout lengths): dependence on dose” value in the series on Male Wistar rats (laboratory rats, 10 and 30 mg/kg) is “dose-dependent”. The molecule further yielded an IC50 on Histamine, H1 of 1070 nM. On Histamine, H1 (read-out: H1 Ki), the Ki amounted to 416 nM.
For the molecule `Cc1ccc(-c2nc3ccc(C)cn3c2CC(=O)N(C)C)cc1` [Ambien, Zolpidem, reference compound], in the series on Male Wistar rats (30 mg/kg IP, at CT-18), the “Average Bout-Length” value was 5.8 min, the Duration fell in the range of 3 to 4 h, the “Maximum Bout Length” value came to 13.1 min and the “Motor Inhibition” value is reported as “YES”. Moreover, in the series on Male Wistar rats (30 mg/kg IP, at CT-18), the “NREM Accum.” value came out at 58.7 min, the “NREM Peak” value worked out at 58.2 %/hr, the Onset came out at 5 min and the “REM Inhibition” value was “YES”. The “Rebound Insomnia” value with Male Wistar rats (30 mg/kg IP, at CT-18) was “YES”.
Consider `Cl.O=C(O)CCN1CCC(OC(c2ccccc2)c2ccccc2)CC1` [Series 6a, 3-[4-(diphenylmethoxy)piperidin-1-yl]propanoic acid hydrochloride], for which, in the series on Male Wistar rats (30 mg/kg PO, at CT-18), the “Average Bout-Length” value was 7.0 min, the Duration was determined as 5 h, the “Maximum Bout Length” value worked out at 12.8 min and the “NREM Accum.” value turned out to be 26.5 min. Also, in the series with Male Wistar rats (30 mg/kg PO, at CT-18), the “NREM Peak” value is reported as 56.4 %/hr and the Onset stood at 65 min. For the same molecule, the Ki at Histamine, H1 (setting [1]) came to 56.1 nM.
With `Cl.O=C(O)CCCN1CCC(OC(c2ccccc2)c2ccccc2)CC1` [Series 53a], in the series on Male Wistar rats (30 mg/kg PO, at CT-18), the “Average Bout-Length” value stood at 4.3 min, the Duration came to 4 h, the “Maximum Bout Length” value was determined as 9.1 min and the “NREM Accum.” value was 17.4 min. Moreover, in the series with Male Wistar rats (30 mg/kg PO, at CT-18), the “NREM Peak” value worked out at 49.2 %/hr and the Onset was found to be 30 min. In addition, the Ki on Histamine, H1 (setting [1]) stood at 16.1 nM.
Take `CC(C)OC(=O)CCN1CCC(=C(c2ccccc2)c2ccccc2)CC1` [Series 11d, Isopropyl 3-[4-(diphenylmethylidene)piperidin-1-yl]propanoate]: in the series with Male Wistar rats (30 mg/kg PO, at CT-18), the “Average Bout-Length” value was determined as 11.0 min, the Duration came out at 6 h, the “Maximum Bout Length” value stood at 20.1 min and the “NREM Accum.” value worked out at 55.5 min. Besides, in the series on Male Wistar rats (30 mg/kg PO, at CT-18), the “NREM Peak” value was 58.5 %/hr and the Onset was 135 min. This molecule also returned an IC50 on Histamine, H1 of 378 nM. Also, the Ki on Histamine, H1 (read-out: H1 Ki) is 147 nM.
In the case of `CC(C)OC(=O)CN1CCC(=C2c3ccccc3COc3ccccc32)CC1` [dox7d-oxalate], in the series with Male Wistar rats (30 mg/kg PO, at CT-18), the “Average Bout-Length” value was determined as 12.9 min, the Duration is 5 h, the “Maximum Bout Length” value was 25.0 min and the “NREM Accum.” value is 54.1 min. Also, in the series on Male Wistar rats (30 mg/kg PO, at CT-18), the “NREM Peak” value was 76.9 %/hr and the Onset was found to be 85 min. The Ki on Histamine, H1 (setting [1]) worked out at 198 nM.
